How the values were obtained:
[1] = target: T1, Acidic mammalian chitinase (Mus musculus, UniProt Q91XA9); assay: Inhibition of mouse recombinant full length C-terminal His-tagged acidic mammalian chitinase expressed in CHO-K1 cells using 4-methylumbelliferyl-beta-D-N,N'-diacetylchitobioside hydrate as substrate after 60 mins by fluorescence assay
Chitotriosidase-1 [2] = target: T2, Chitotriosidase-1 (Homo sapiens, UniProt Q13231); assay: Inhibition of human recombinant full length C-terminal His-tagged chitotriosidase expressed in CHO-K1 cells using 4-methylumbelliferyl-beta-D-N,N',N\"\"-triacetylchitotrioside as substrate after 60 mins by fluorescence assay; assay type: cell-based
Chitotriosidase-1 [3] = target: T3, Chitotriosidase-1 (Mus musculus, UniProt Q9D7Q1); assay: Inhibition of mouse recombinant full length C-terminal His-tagged chitotriosidase expressed in CHO-K1 cells using 4-methylumbelliferyl-beta-D-N,N',N\"\"-triacetylchitotrioside as substrate after 60 mins by fluorescence assay; assay type: cell-based
[4] = Volume of distribution at steady state in BALB/c mouse at 3 mg/kg, iv by LC-MS/MS analysis; assay type: ADME, organism-based; details: in vivo, read-out: Vdss
[5] = Clearance in BALB/c mouse at 3 mg/kg, iv by LC-MS/MS analysis; assay type: ADME, organism-based; details: in vivo
[6] = Half life in BALB/c mouse at 3 mg/kg, iv by LC-MS/MS analysis; assay type: ADME, organism-based; details: in vivo
[7] = AUC (0 to infinity) in BALB/c mouse at 3 mg/kg, iv by LC-MS/MS analysis; assay type: ADME, organism-based; set-up: dose 3 mg/kg, route intravenous, time infinity; details: in vivo
[8] = Cmax in BALB/c mouse at 10 mg/kg, po by LC-MS/MS analysis; assay type: ADME, organism-based; set-up: dose 10 mg/kg, route oral; details: in vivo
[9] = Tmax in BALB/c mouse at 10 mg/kg, po by LC-MS/MS analysis; assay type: ADME, organism-based; details: in vivo
[10] = AUC (0 to infinity) in BALB/c mouse at 10 mg/kg, po by LC-MS/MS analysis; assay type: ADME, organism-based; set-up: dose 10 mg/kg, route oral, time infinity; details: in vivo
[11] = Oral bioavailability in BALB/c mouse at 10 mg/kg by LC-MS/MS analysis; assay type: ADME, organism-based; details: in vivo
[12] = Stability in liver microsomes (unknown origin) assessed as compound remaining after 20 mins; assay type: ADME, microsome; details: read-out: Stability
[13] = target: T1, Acidic mammalian chitinase; assay: Inhibition of mouse recombinant full length C-terminal His-tagged acidic mammalian chitinase expressed in CHO-K1 cells using 4-methylumbelliferyl-beta-D-N,N'-diacetylchitobioside hydrate as substrate after 60 mins by Lineweaver-Burk plot analysis
Chitotriosidase-1 [14] = target: T2, Chitotriosidase-1; assay: Inhibition of human recombinant full length C-terminal His-tagged chitotriosidase expressed in CHO-K1 cells using 4-methylumbelliferyl-beta-D-N,N',N\"\"-triacetylchitotrioside as substrate after 60 mins by Lineweaver-Burk plot analysis; assay type: cell-based
Chitotriosidase-1 [15] = target: T3, Chitotriosidase-1; assay: Inhibition of mouse recombinant full length C-terminal His-tagged chitotriosidase expressed in CHO-K1 cells using 4-methylumbelliferyl-beta-D-N,N',N\"\"-triacetylchitotrioside as substrate after 60 mins by Lineweaver-Burk plot analysis; assay type: cell-based
Salmonella typhimurium = assay: Genotoxicity in Salmonella typhimurium by Ames test; assay type: toxicity; details: salmonella enterica subsp. enterica serovar typhimurium

T3 sequence (Q9D7Q1 whole entry): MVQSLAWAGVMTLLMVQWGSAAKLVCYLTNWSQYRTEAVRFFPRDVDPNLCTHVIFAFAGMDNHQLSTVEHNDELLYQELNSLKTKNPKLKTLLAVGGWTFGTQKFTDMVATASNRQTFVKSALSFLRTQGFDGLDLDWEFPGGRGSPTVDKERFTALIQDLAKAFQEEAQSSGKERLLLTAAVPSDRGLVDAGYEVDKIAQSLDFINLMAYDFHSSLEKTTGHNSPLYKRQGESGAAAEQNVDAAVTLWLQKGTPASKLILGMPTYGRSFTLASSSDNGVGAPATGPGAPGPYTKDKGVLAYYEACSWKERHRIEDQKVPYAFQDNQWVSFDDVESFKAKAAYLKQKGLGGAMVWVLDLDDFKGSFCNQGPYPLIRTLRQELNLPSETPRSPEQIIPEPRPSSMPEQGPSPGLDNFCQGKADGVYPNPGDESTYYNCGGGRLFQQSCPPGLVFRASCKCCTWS
T1 sequence (Q91XA9 whole entry): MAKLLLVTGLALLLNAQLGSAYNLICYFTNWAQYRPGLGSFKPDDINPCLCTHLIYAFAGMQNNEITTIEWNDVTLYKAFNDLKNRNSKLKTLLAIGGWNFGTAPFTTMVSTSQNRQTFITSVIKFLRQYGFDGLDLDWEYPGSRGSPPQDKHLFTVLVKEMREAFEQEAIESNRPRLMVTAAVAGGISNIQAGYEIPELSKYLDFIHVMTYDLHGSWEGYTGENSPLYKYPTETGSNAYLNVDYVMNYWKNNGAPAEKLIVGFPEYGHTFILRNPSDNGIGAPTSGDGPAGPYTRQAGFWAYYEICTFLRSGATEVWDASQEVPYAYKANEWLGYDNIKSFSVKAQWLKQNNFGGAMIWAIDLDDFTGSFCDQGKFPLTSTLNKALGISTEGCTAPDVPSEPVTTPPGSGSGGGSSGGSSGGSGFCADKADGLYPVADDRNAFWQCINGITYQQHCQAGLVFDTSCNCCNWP
T2 sequence (Q13231 whole entry): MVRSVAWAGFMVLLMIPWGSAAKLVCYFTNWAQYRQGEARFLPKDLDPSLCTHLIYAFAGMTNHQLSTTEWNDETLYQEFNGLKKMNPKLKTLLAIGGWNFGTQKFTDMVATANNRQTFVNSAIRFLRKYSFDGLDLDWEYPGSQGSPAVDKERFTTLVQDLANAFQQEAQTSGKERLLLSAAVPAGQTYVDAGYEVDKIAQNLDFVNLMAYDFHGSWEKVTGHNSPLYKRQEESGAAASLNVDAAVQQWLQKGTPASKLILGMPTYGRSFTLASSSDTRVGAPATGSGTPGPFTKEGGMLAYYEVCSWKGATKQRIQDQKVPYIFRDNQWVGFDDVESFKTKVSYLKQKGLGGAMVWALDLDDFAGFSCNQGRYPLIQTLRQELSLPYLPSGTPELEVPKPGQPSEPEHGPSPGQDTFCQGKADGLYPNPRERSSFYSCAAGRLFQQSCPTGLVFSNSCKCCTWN

| Compound | IC50 (Chitotriosidase-1 [2]) [nM] | IC50 (Chitotriosidase-1 [3]) [nM] | further results |
| --- | --- | --- | --- |
| Nc1n[nH]c(N2CCN(CCOc3ccc(Br)cc3)CC2)n1 | 6760 | 19800 | IC50 [1]: 2100 nM |
| Nc1n[nH]c(N2CCC(NC(=O)Nc3ccc(Br)cc3)CC2)n1 | > 100000 | > 100000 |  |
| CN(CCc1ccccc1)C1CCN(c2nc(N)n[nH]2)CC1 | > 100000 | > 100000 |  |
| CN(CCc1ccc(Cl)cc1)C1CCN(c2nc(N)n[nH]2)CC1 | 389 | 7470 |  |
| CN(CCc1ccc(C(C)(C)C)cc1)C1CCN(c2nc(N)n[nH]2)CC1 | 4160 | > 100000 |  |
| Nc1n[nH]c(N2CCC(NS(=O)(=O)Cc3ccc(Br)cc3)CC2)n1 | > 100000 | > 100000 | Vd [4]: 1.16 L/kg; clearance [5]: 11.5 mL/min/kg; half-life [6]: 11.1 h; AUC(0-inf) [7]: 4340 ng·h/mL; Cmax [8]: 3250 ng/mL; Tmax [9]: 1 h; AUC(0-inf) [10]: 8210 ng·h/mL; bioavailability [11]: 57%; remaining at 20 min [12]: 100% |
| CC(C)CN(CCc1ccc(Br)cc1)C1CCN(c2nc(N)n[nH]2)CC1 | 123 | 1270 | Vd [4]: 1.66 L/kg; clearance [5]: 8.53 mL/min/kg; half-life [6]: 3.25 h; AUC(0-inf) [7]: 5860 ng·h/mL; Cmax [8]: 6040 ng/mL; Tmax [9]: 0.5 h; AUC(0-inf) [10]: 27900 ng·h/mL; bioavailability [11]: 100%; remaining at 20 min [12]: 78.3% |
| CC(C)c1ccc(CCN(C)C2CCN(c3nc(N)n[nH]3)CC2)cc1 | 1170 | 6960 |  |
| Nc1n[nH]c(N2CCC(C(=O)NCc3ccc(Br)cc3)CC2)n1 | > 100000 | > 100000 |  |
| CCN(CCc1ccc(Cl)cc1)C1CCN(c2nc(N)n[nH]2)CC1 | 385 | 7080 |  |
| CC(C)N(CCc1ccc(Cl)cc1)C1CCN(c2nc(N)n[nH]2)CC1 | 945 | 15600 |  |
| CC(C)CN(CCc1ccc(Cl)cc1)C1CCN(c2nc(N)n[nH]2)CC1 | 232 | 2960 | IC50 [1]: 18.8 nM; Ki [13]: 10.5 nM; Ki (Chitotriosidase-1 [14]): 312 nM; Ki (Chitotriosidase-1 [15]): 3400 nM; Vd [4]: 2.33 L/kg; clearance [5]: 9.06 mL/min/kg; half-life [6]: 2.97 h; AUC(0-inf) [7]: 5520 ng·h/mL; Cmax [8]: 1860 ng/mL; Tmax [9]: 0.25 h; AUC(0-inf) [10]: 9560 ng·h/mL; bioavailability [11]: 52%; remaining at 20 min [12]: 76.9%; Activity (Salmonella typhimurium): Non-Toxic |
| Nc1n[nH]c(N2CCC(N(CCc3ccc(Cl)cc3)Cc3ccccc3)CC2)n1 | 163 | 1510 | IC50 [1]: 11.2 nM |
| Nc1n[nH]c(N2CCC(N(CCc3ccc(Cl)cc3)Cc3ccccc3Cl)CC2)n1 | 149 | 2580 | IC50 [1]: 9.7 nM; Vd [4]: 3.03 L/kg; clearance [5]: 45 mL/min/kg; half-life [6]: 6.78 h; AUC(0-inf) [7]: 1110 ng·h/mL; Cmax [8]: 618 ng/mL; Tmax [9]: 1 h; AUC(0-inf) [10]: 1750 ng·h/mL; bioavailability [11]: 47%; remaining at 20 min [12]: 21% |
| CN(Cc1ccc(Br)cc1)CC1CCN(c2nc(N)n[nH]2)CC1 | > 100000 | > 100000 |  |
| Cc1ccc(CCN(C)C2CCN(c3nc(N)n[nH]3)CC2)cc1 | 1520 | 12600 |  |
| Nc1n[nH]c(N2CCC(N(CCc3ccc(Cl)cc3)CC3CCCCC3)CC2)n1 | 123 | 2030 |  |
| CN(CCc1ccc(Cl)cc1Cl)C1CCN(c2nc(N)n[nH]2)CC1 | 2260 | 47600 |  |
| Nc1n[nH]c(N2CCC(N(CCc3ccc(Cl)cc3)Cc3cccc4ccccc34)CC2)n1 | 36 | 573 |  |
| CN(CCc1ccc(Br)cc1)C1CCN(c2nc(N)n[nH]2)CC1 | 175 | 2700 | Vd [4]: 12.8 L/kg; clearance [5]: 52.6 mL/min/kg; half-life [6]: 4.4 h; AUC(0-inf) [7]: 950 ng·h/mL; Cmax [8]: 672 ng/mL; Tmax [9]: 2 h; AUC(0-inf) [10]: 3340 ng·h/mL; bioavailability [11]: 99%; remaining at 20 min [12]: 97.5% |
| Nc1n[nH]c(N2CCC(NC(=O)Cc3ccc(Br)cc3)CC2)n1 | > 100000 | > 100000 |  |
| CN(CCc1ccc(C2CC2)cc1)C1CCN(c2nc(N)n[nH]2)CC1 | 765 | 3070 |  |
| CN(C1CCN(c2nc(N)n[nH]2)CC1)S(=O)(=O)Cc1ccc(Br)cc1 | > 100000 | > 100000 |  |
| Nc1n[nH]c(N2CCN(C(=O)COc3ccc(Br)cc3)CC2)n1 | > 100000 | > 100000 |  |
| CCN(CCc1ccc(Br)cc1)C1CCN(c2nc(N)n[nH]2)CC1 | 105 | 2720 |  |
| Nc1n[nH]c(N2CCC(CNC(=O)c3ccc(Br)cc3)CC2)n1 | 23100 | > 100000 |  |
| CCc1ccc(CCN(C)C2CCN(c3nc(N)n[nH]3)CC2)cc1 |  | 7120 |  |

Source: ChEMBL document CHEMBL4020821, “Targeting Acidic Mammalian chitinase Is Effective in Animal Model of Asthma” (J Med Chem, 2018)
